From PubChem BioAssay (NCI)
“And” between values parts separate entries of the source, which are not always exact repeats. Equal entries are not always repeated.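 Each compound was tested at five concentrations against cells in 96-well plates for 48 hours. At the GI50, growth is halved. The concentration for full growth arrest is given as TGI.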

Legend:
Experiment in all cases: NCI tumour cell line growth inhibition, 48 h
SF-268 CNS = test system: SF-268 CNS
SK-MEL-5 melanoma = test system: SK-MEL-5 melanoma
UO-31 renal = test system: UO-31 renal
HT29 colon = test system: HT29 colon
MDA-MB-231 breast = test system: MDA-MB-231 breast
ACHN renal = test system: ACHN renal
A549 NSCLC = test system: A549 NSCLC
NCI-H460 lung = test system: NCI-H460 lung
HCT-15 colon = test system: HCT-15 colon
SN12C renal = test system: SN12C renal

Compound	GI50 (SF-268 CNS)	TGI (SF-268 CNS)	GI50 (SK-MEL-5 melanoma)	TGI (SK-MEL-5 melanoma)	GI50 (UO-31 renal)	TGI (UO-31 renal)	GI50 (HT29 colon)	TGI (HT29 colon)	GI50 (MDA-MB-231 breast)	TGI (MDA-MB-231 breast)	GI50 (ACHN renal)	TGI (ACHN renal)	GI50 (A549 NSCLC) [µM]	TGI (A549 NSCLC)	GI50 (NCI-H460 lung)	TGI (NCI-H460 lung)	GI50 (HCT-15 colon)	TGI (HCT-15 colon)	GI50 (SN12C renal)	TGI (SN12C renal)
O=c1oc2ccc(Cl)cc2c(=O)n1-c1ccc(F)cc1F	2.21 µM	15.8 µM	1.11 µM	2.46 µM	1.22 µM	7.97 µM	3.52 µM	38.8 µM	2.06 µM	8.2 µM	2.14 µM	6.08 µM	2.08	> 100 µM	2.2 µM	11.5 µM	2.32 µM	13.5 µM	1.67 µM	8.78 µM
COc1ccccc1NC(=O)CC(=O)n1nc(C)c(N=Nc2ccccc2Cl)c1C	–	> 100 µM	–	> 100 µM	–	> 100 µM	–	> 100 µM	–	> 100 µM	–	> 100 µM	–	> 100 µM	–	> 100 µM	–	> 100 µM	–	> 100 µM
CCn1c(SCC(=O)Nc2cc(C(F)(F)F)ccc2Cl)nc2ccccc2c1=O	41.2 µM	> 100 µM	25.1 µM	> 100 µM	28.4 µM	> 100 µM	> 100 µM	> 100 µM	18.9 µM	> 100 µM	22.6 µM	> 100 µM	–	–	30.5 µM	> 100 µM	8.46 µM	> 100 µM	76.9 µM	> 100 µM
O=C(Nc1cccc(C(F)(F)F)c1)c1ccc(NC2=C(Cl)C(=O)N(Cc3ccccc3)C2=O)cc1	6.41 µM	29.9 µM	4.07 µM	18.1 µM	2.84 µM	9.06 µM	13.6 µM	52 µM	6.53 µM	23.9 µM	15.3 µM	29.5 µM	34.1	84.9 µM	5.91 µM	57 µM	4.41 µM	18.9 µM	4.4 µM	20.1 µM
COc1ccc(CNCCCN2C(=O)c3ccc4c5c(ccc(c35)C2=O)C(=O)N(CCCNCc2ccc(OC)c(OC)c2OC)C4=O)c(OC)c1OC	0.117 µM	0.353 µM	0.0792 µM	0.147 µM	0.585 µM	1.22 µM	0.0522 µM	0.244 µM	0.125 µM	0.398 µM	0.107 µM	0.257 µM	0.103	0.231 µM	0.121 µM	0.336 µM	0.244 µM	0.952 µM	0.0821 µM	0.157 µM
O=C(O)CN1C(=O)CN=C(c2ccccn2)c2cc(Cl)ccc21	–	> 100 µM	–	> 100 µM	–	> 100 µM	–	> 100 µM	–	> 100 µM	–	> 100 µM	–	> 100 µM	–	> 100 µM	–	> 100 µM	–	> 100 µM
CCN1C(=O)N(CC)C2C1NN=c1s/c(=C\c3ccc(C(F)(F)F)cc3)c(=O)n12 (centres undefined)	1.03 µM	> 41 µM	0.488 µM	2.63 µM	0.839 µM	> 42.9 µM	0.352 µM	11.8 µM	0.495 µM	8.84 µM	0.808 µM	30.5 µM	0.395	> 43.1 µM	0.365 µM	10.9 µM	0.318 µM	> 35.6 µM	0.678 µM	20 µM
Cc1ccc(-c2nc(/C=N/Nc3cc(C)nc4ccc(Br)cc34)c(C)o2)cc1	2.09 µM	4.22 µM	3.7 µM	13.6 µM	1.65 µM	3.08 µM	1.92 µM	3.82 µM	1.98 µM	3.77 µM	1.8 µM	3.21 µM	1.82	3.52 µM	1.94 µM	3.73 µM	1.86 µM	3.64 µM	1.88 µM	3.69 µM
COc1ccc(C2CC(c3ccc(OC)cc3O)=NN2c2ccc(S(N)(=O)=O)cc2)cc1 (centres undefined)	34.1 µM	> 100 µM	14.9 µM	> 100 µM	2.99 µM	> 100 µM	11.1 µM	> 100 µM	15.3 µM	> 100 µM	5.86 µM	> 100 µM	6.36	> 100 µM	6.74 µM	39.2 µM	5.98 µM	> 100 µM	16.7 µM	> 100 µM
O=C1OC(c2ccc(Cl)cc2)=N/C1=C\c1ccccc1	–	> 100 µM	–	> 100 µM	–	> 100 µM	–	> 100 µM	–	> 100 µM	–	> 100 µM	–	> 100 µM	–	> 100 µM	–	> 100 µM	–	> 100 µM
FC(F)(F)c1nc(SCc2ccc(Cl)cc2)n[nH]1	–	> 100 µM	–	> 100 µM	–	> 100 µM	–	> 100 µM	–	> 100 µM	–	> 100 µM	–	> 100 µM	–	> 100 µM	–	> 100 µM	–	> 100 µM
NNc1nc2ccccc2o1	–	> 100 µM	–	> 100 µM	–	> 100 µM	–	> 100 µM	–	> 100 µM	–	> 100 µM	–	> 100 µM	–	> 100 µM	–	> 100 µM	–	> 100 µM
O=C(c1ccccc1)C1OC1C(=O)c1ccccc1 (centres undefined)	2.93 µM	19.1 µM	3.46 µM	14.3 µM	8.09 µM	85.6 µM	3.19 µM	13.2 µM	3.31 µM	> 100 µM	3.67 µM	15.7 µM	4.17	39.2 µM	3.93 µM	> 100 µM	2.61 µM	12.2 µM	3.22 µM	63.4 µM
O=C1/C(=C/c2ccc(F)cc2)CN(C(=O)C(Cl)Cl)C/C1=C\c1ccc(F)cc1	0.328 µM	1.47 µM	0.366 µM	1.01 µM	0.163 µM	0.327 µM	0.181 µM	–	0.323 µM	1.09 µM	0.24 µM	0.603 µM	0.324	1.38 µM	0.294 µM	0.878 µM	0.145 µM	0.682 µM	0.222 µM	0.556 µM
CCCS(=O)(=O)Nc1cccc(Nc2ncnc3cc(NC(=O)CCl)ccc23)c1Cl	1.03 µM	4.62 µM	3.4 µM	7.14 µM	4.06 µM	7.65 µM	1.1 µM	4.74 µM	2.34 µM	6.08 µM	3.44 µM	7.23 µM	4.99	10.1 µM	3.67 µM	8.06 µM	1.6 µM	6.95 µM	1.06 µM	3.85 µM
O=C(CCCC(=O)N/N=C/c1cc(Cl)ccc1O)N/N=C\c1cc(Cl)ccc1O	2.5 µM	> 100 µM	2.5 µM	> 100 µM	1.24 µM	> 100 µM	21.2 µM	> 100 µM	2.63 µM	91.6 µM	1.58 µM	> 100 µM	3.69	> 100 µM	2.94 µM	> 100 µM	0.574 µM	> 100 µM	4.3 µM	> 100 µM
COc1cc(NS(C)(=O)=O)ccc1Cc1c2ccccc2nc2ccccc12	0.179 µM	6.03 µM	0.121 µM	1.11 µM	0.126 µM	1.02 µM	0.3 µM	1.82 µM	1.28 µM	2.78 µM	0.0463 µM	1.11 µM	0.0164	1.06 µM	< 0.012 µM	1.06 µM	0.371 µM	2.76 µM	0.0742 µM	1.17 µM
CC1=C2[C@@H](CC1)[C@]1(C)O[C@@](C(C)C)(C[C@H]1OC(=O)CO)[C@H]2OC(=O)CCCc1ccccc1	11.5 µM	32.6 µM	7.91 µM	20.3 µM	3.36 µM	14.7 µM	10.8 µM	26.1 µM	12.9 µM	31.8 µM	7.02 µM	19.3 µM	6.96	41.5 µM	9.1 µM	22.9 µM	9.02 µM	22.2 µM	4.52 µM	18 µM
CC1OC(CC(=O)O)Cc2c1c(O)c1c(O)cc(-c3cc(=O)c4c(=O)c5c(c(=O)c=4c3=O)CC(CC(=O)O)OC5C)c(O)c1c2O (centres undefined)	47.8 µM	> 100 µM	60.9 µM	31.9 µM	30.3 µM	> 64.5 µM	26.1 µM	55.6 µM and 94.7 µM	29.4 µM	64.9 µM	43.3 µM	> 81 µM	53.7	> 100 µM	35 µM	> 100 µM	61.6 µM	16.7 µM	29.2 µM	32 µM
CCOC(=O)Nc1ccc2c(c1)C(=O)N(CC)c1ccccc1O2	0.26 µM	> 100 µM	0.106 µM	2.33 µM	0.379 µM	> 100 µM	0.0791 µM	> 39.6 µM	0.4 µM	> 100 µM	0.232 µM	> 100 µM	0.145	> 100 µM	0.116 µM	> 100 µM	0.0746 µM	> 100 µM	0.449 µM	> 100 µM
O=C(Nc1cn[nH]c1-c1nc2ccc(CN3CCOCC3)cc2[nH]1)NC1CC1	0.344 µM and 1.84 µM	2.44 µM and > 10 µM	1.34 µM and 8.52 µM	3.68 µM and > 10 µM	0.851 µM and 2.33 µM	> 24.6 µM	0.272 µM and 2.22 µM	4.71 µM and > 10 µM	1.18 µM and 1.48 µM	10.3 µM and > 10 µM	2.47 µM and 5.7 µM	17.7 µM and > 10 µM	–	9.76 µM and > 10 µM	1.78 µM and 7.25 µM	10.5 µM and > 10 µM	4.52 µM and > 10 µM	25.6 µM and > 10 µM	0.468 µM and 2.54 µM	12.1 µM and > 10 µM
CC[C@H]1CCC/C=C/[C@@H]2C[C@H](O)C[C@H]2[C@H](O)/C=C/C(=O)O1	0.0403 µM	> 100 µM	0.0166 µM	0.0328 µM	0.0267 µM	> 37.2 µM	0.0264 µM	0.405 µM	0.0213 µM	0.0416 µM	0.0443 µM	> 100 µM	0.0434	> 100 µM	0.107 µM	> 100 µM	0.0446 µM	–	0.053 µM	> 100 µM
Cc1ccc2[nH]c(O)c(N=Nc3ccccc3[N+](=O)[O-])c2c1	–	> 29.4 µM	–	> 100 µM	–	9.3 µM	–	> 100 µM	–	6.03 µM	–	–	–	> 100 µM	–	> 100 µM	–	> 100 µM	–	> 100 µM
CCN(CC)CCCNc1n[n+]([O-])c2ccccc2[n+]1[O-]	–	> 100 µM	–	3.54 µM	–	> 100 µM	–	85.3 µM	–	31.4 µM	–	53.1 µM	–	39.7 µM	–	27.4 µM	–	31.5 µM	–	27.9 µM
COC(=O)C1=C(C(=O)ON)[C@@H]2C=C[C@@]1([C@@H](Cc1ccccc1)Nc1ccccc1)O2	14 µM	28.5 µM	14.7 µM	27.8 µM	1.51 µM	2.84 µM	1.89 µM	3.97 µM	1.79 µM	3.78 µM	1.67 µM	3.04 µM	16.9	32.2 µM	16.6 µM	32.4 µM	1.76 µM	4.1 µM	1.87 µM	3.69 µM
CN[C@@H](Cc1cccc2ccccc12)C(=O)N[C@@H](CC(C)C)B(O)O	0.0154 µM	0.0353 µM	0.0249 µM	0.103 µM and 0.0128 µM	0.0179 µM	0.059 µM and < 0.0131 µM	–	0.025 µM	0.0201 µM	0.0446 µM and < 0.0145 µM	–	> 100 µM	0.0465	–	0.0266 µM	0.105 µM and 0.0551 µM	0.0172 µM	0.0459 µM and 0.406 µM	0.0167 µM	0.0722 µM and 0.0185 µM
CC[C@]12C=CCN3CC[C@@]4(c5ccc(OC)cc5N(C)[C@H]4[C@@](O)(C(=O)OC)[C@@H]1OC(=O)CCC(=O)O[C@H]1CC[C@H]4[C@@H]5CC[C@H]6CC(=O)CC[C@]6(C)[C@H]5CC[C@]14C)[C@@H]32	4.81 µM	> 100 µM	1.65 µM	4.03 µM	–	–	2.13 µM	6.06 µM	3.03 µM	11.3 µM	3.01 µM	> 100 µM	4.19	35.3 µM	2.76 µM	10.6 µM	2.44 µM	> 100 µM	2.88 µM	36.2 µM
